Series [1] concerns the target T1, Solute carrier organic anion transporter family member 1B3 (Homo sapiens, UniProt Q9NPD5).
T1 sequence (Q9NPD5 whole entry): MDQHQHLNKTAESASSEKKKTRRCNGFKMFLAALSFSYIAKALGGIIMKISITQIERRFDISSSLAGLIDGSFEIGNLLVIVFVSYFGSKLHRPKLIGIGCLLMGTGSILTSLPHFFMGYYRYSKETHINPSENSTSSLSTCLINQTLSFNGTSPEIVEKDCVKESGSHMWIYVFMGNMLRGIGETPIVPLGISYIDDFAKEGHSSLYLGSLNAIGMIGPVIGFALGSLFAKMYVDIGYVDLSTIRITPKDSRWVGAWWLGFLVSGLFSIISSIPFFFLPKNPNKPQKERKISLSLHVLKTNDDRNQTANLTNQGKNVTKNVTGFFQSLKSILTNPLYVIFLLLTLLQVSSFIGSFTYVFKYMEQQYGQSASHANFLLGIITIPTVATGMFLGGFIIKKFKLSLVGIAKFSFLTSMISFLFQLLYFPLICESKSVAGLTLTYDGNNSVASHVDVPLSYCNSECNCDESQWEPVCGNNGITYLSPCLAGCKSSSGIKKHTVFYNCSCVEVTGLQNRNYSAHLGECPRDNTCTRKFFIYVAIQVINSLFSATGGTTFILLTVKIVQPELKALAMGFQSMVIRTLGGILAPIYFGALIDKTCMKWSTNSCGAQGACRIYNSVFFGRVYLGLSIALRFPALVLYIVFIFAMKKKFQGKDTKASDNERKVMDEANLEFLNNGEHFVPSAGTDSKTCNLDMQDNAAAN
To be noted: chinese hamster, cho, 10 µM.

Series [2] concerns the target T2, Solute carrier organic anion transporter family member 1B1 (Homo sapiens, UniProt Q9Y6L6).
T2 sequence (Q9Y6L6 whole entry): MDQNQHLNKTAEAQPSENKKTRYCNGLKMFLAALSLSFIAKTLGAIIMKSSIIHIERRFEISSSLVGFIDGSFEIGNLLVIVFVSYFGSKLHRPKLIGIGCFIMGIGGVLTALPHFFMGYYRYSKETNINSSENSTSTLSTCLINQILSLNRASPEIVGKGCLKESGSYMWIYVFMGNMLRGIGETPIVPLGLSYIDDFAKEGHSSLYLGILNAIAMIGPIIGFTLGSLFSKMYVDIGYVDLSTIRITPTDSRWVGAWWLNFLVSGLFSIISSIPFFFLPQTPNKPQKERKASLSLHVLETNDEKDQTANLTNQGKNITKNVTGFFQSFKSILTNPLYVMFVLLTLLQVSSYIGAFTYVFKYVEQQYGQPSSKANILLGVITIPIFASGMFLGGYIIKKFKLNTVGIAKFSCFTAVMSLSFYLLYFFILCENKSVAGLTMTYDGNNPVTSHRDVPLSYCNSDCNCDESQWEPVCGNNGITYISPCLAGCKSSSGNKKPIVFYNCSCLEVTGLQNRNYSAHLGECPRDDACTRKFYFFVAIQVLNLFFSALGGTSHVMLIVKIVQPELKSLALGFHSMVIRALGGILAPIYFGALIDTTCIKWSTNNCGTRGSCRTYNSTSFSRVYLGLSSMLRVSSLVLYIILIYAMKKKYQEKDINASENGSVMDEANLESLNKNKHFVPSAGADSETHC
Particulars: chinese hamster, cho, 10 µM.

As a reminder, the residual activity is the signal under treatment as a percentage of the control signal.

Take `CC(=O)OC(C)C[N+](C)(C)C.[Cl-]` (stereo not drawn) [METHACHOLINE CHLORIDE]: the figures for the residual activity in series [1] and in series [2] were 106.9% and 86.62%, respectively.

As to `C[C@]12CC[C@@H](O)C[C@H]1CC[C@@H]1[C@@H]2C(=O)C[C@@]2(C)[C@H]1CC[C@]2(O)C(=O)CO` [TETRAHYDROCORTISONE], the residual activity in series [1] was determined as 99.93%; in series [2], 101.6%.

Take `OC(c1cc(C(F)(F)F)nc2c(C(F)(F)F)cccc12)C1CCCCN1` (stereo not drawn) [MEFLOQUINE]: the residual activity in series [1] stood at 112.7%; in series [2] it was 161.6%.

For the compound `O=C(O)/C=C/C=C/c1ccccc1` [JUAREZIC ACID], the residual activity in series [1] was 88.74%; in series [2] it was 102.3%.

For `CCC(C)C(=O)OC1[C@@H]2CC3=C4CC(=O)O[C@@H](c5ccoc5)[C@]4(C)CCC3[C@@](C)(C2=O)[C@@H](CC(=O)OC)C1(C)C` (stereo partly drawn) [KHAYASIN], the values for the residual activity in series [1] and in series [2] were 83.34% and 98.52%, respectively.

Turning to `CN(C)CCOC(c1ccc(Cl)cc1)c1ccccn1.O=C(O)/C=C\C(=O)O` (stereo not drawn) [CARBINOXAMINE MALEATE], the residual activity in series [1] worked out at 96.23%; in series [2], 85.11%.

As for `O=C1C=C2C=C[C@@H]3C[C@@]2(O1)[C@H]1CCCCN31` [SECURININE], the figures for the residual activity in series [1] and in series [2] were 115.4% and 92.42%, respectively.

`Cc1ccc(C(=O)c2ccc(CC(=O)[O-])n2C)cc1.[Na+]` [TOLMETIN SODIUM]: the residual activity in series [1] is recorded as 90.31%; in series [2], 127.1%.

`COc1ccc([C@H]2Oc3c(I)c(OC)cc(OC)c3C[C@@H]2O)cc1OC` [8-IODOCATECHIN TETRAMETHYL ETHER]: the values for the residual activity in series [1] and in series [2] were 100.1% and 194.8%, respectively.

Take `COc1ccc([C@@H]2CC(=O)c3c(O)cc(O[C@@H]4O[C@H](CO[C@@H]5O[C@@H](C)[C@H](O)[C@@H](O)[C@H]5O)[C@@H](O)[C@H](O)[C@H]4O)cc3O2)cc1O` [HESPERIDIN]: the residual activity was determined as 110.2% in series [1] and 106.1% in series [2].

Turning to `CCOC(=O)c1c(C)cc(O)c(C=O)c1O` [ETHYL HEMATOMMATE], the residual activity was 77.96% in series [1] and 61.89% in series [2].

As to `CC1(C)C(=O)[C@@H]2O[C@@H]2[C@]2(C)[C@H]3CC[C@@]4(C)[C@H](c5ccoc5)OC(=O)[C@H]5O[C@]54[C@]3(C)C(=O)C[C@@H]12`, the residual activity in series [1] was 74.75%; in series [2] it was 68.02%.

As to `CC(=O)O.CSC(=N)NCCC[C@H](N)C(=O)O` [S-METHYL-L-THIOCITRULLINE ACETATE], the residual activity in series [1] was 107%; in series [2], 104.5%.

On to `CCCC(CCC)C(=O)[O-].[Na+]` [VALPROATE SODIUM], for which the residual activity was 125.1% in series [1] and 90.61% in series [2].

For `COP(=S)(OC)Oc1ccc([N+](=O)[O-])cc1` [METHYL PARATHIONE], the residual activity in series [1] was 100.2%; in series [2], 107.9%.

For the compound `CC(=O)OCC(COC(C)=O)OC(C)=O` [TRIACETIN], the values for the residual activity in series [1] and in series [2] were 86.74% and 98.2%, respectively.

As for `C[C@@H]1C[C@H]2[C@@H]3C[C@H](F)C4=CC(=O)C=C[C@]4(C)[C@@]3(F)[C@@H](O)C[C@]2(C)[C@@]1(O)C(=O)COC(=O)C(C)(C)C` [FLUMETHASONE PIVALATE], the residual activity in series [1] was found to be 107.9%; in series [2], 98.41%.

Regarding `CC(=O)Oc1ccc(O)cc1` [4-ACETOXYPHENOL], the residual activity was 116.4% in series [1] and 136.7% in series [2].

With `COc1cc2c(cc1OC)[C@@]13CCN4CC5=CCO[C@H]6CC(=O)N2[C@H]1[C@H]6[C@H]5C[C@H]43` [BRUCINE], the residual activity in series [1] is recorded as 229.8%; in series [2], 117.9%.

These data come from ChEMBL document CHEMBL3039007, “Structure-based identification of OATP1B1/3 inhibitors” (Mol Pharmacol, 2013).
